According to patent US10988485B2 (Amgen Inc., priority 2018, dated 2021):
Like-named read-outs stand apart in the source and are kept apart here.

Columns and labels:
[1] = system: Phosphorylation of ERK1/2 in MIA PaCa-2 cells; assay: Phospho-ERK1/2 MSD Assay; format: cell-based; settings: compound 2 or 4 hours, then 10 ng/mL EGF for 10 min, read-out: p-ERK IC50 (MIA-PaCa-2) (converted)
Description: (§1) For compounds in Table 6, the following assay conditions were employed:
Phospho-ERK1/2 MSD Assay: MIA PaCa-2 (ATCC® CRL-1420™) cells were cultured in RPMI 1640 Medium (ThermoFisher Scientific 11875093) containing 10% fetal bovine serum (ThermoFisher Scientific 16000044) and 1× penicillin-streptomycin-glutamine (ThermoFisher Scientific 10378016). Sixteen hours prior to compound treatment, MIA PaCa-2 cells were seeded in 96-well cell culture plates at a density of 25,000 cells/well and incubated at 37° C., 5% CO2. A compound dose-response titration was diluted in growth media, added to appropriate wells of a cell culture plate, and then incubated at 37° C., 5% CO2 for 2 or 4 hours. Following compound treatment, cells were stimulated with 10 ng/mL EGF (Roche 11376454001) for 10 min, washed with ice-cold Dulbecco's phosphate-buffered saline, no Ca^2+ or Mg^2+ (ThermoFisher Scientific 14190144), and then lysed in RIPA buffer (50 mM Tris-HCl pH 7.5, 1% Igepal, 0.5% sodium deoxycholate, 150 mM NaCl, and 0.5% sodium dodecyl sulfate) containing protease inhibitors (Roche 4693132001) and phosphatase inhibitors (Roche 4906837001). Phosphorylation of ERK1/2 in compound-treated lysates was assayed using Phospho-ERK1/2 Whole Cell Lysate kits (Meso Scale Discovery K151DWD) according to the manufacturer's protocol. Assay plates were read on a Meso Scale Discovery Sector imager 6000, and data were analyzed using a 4-parameter logistic model to calculate IC50 values.

[2] = biological target: GDP-bound KRAS protein (aa 1-169), containing both G12C and C118A amino acid substitutions (Homo sapiens, UniProt P01116, C118A/G12C); assay: Coupled Nucleotide Exchange Assay (SOS-mediated nucleotide exchange, AlphaScreen); format: biochemical; settings: compound pre-incubation either 5 min or 2 hours (not stated per compound); SOS and GTP added, cRAF AlphaScreen read-out
GDP-bound KRAS protein (aa 1-169), containing both G12C and C118A amino acid substitutions, sequence (P01116 1-169 isoform P01116-2 G12C/C118A): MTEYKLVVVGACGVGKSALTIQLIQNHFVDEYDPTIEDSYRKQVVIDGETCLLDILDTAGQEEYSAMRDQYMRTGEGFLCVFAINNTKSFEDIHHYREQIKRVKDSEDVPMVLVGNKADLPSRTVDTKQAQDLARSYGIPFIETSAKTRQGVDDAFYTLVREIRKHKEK
Description: as §1
Coupled Nucleotide Exchange Assay: Purified GDP-bound KRAS protein (aa 1-169), containing both G12C and C118A amino acid substitutions and an N-terminal His-tag, was pre-incubated in assay buffer (25 mM HEPES pH 7.4, 10 mM MgCl2, and 0.01% Triton X-100) with a compound dose-response titration for either 5 min or 2 hours (see Table 15). Following compound pre-incubation, purified SOS protein (aa 564-1049) and GTP (Roche 10106399001) were added to the assay wells and incubated for an additional 30 min (for 5 min compound pre-incubation) or 1 hour (for 2 hour compound pre-incubation). To determine the extent of inhibition of SOS-mediated nucleotide exchange, purified GST-tagged cRAF (aa 1-149), nickel chelate AlphaLISA acceptor beads (PerkinElmer AL108R), and AlphaScreen glutathione donor beads (PerkinElmer 6765302) were added to the assay wells and incubated for 10 minutes. The assay plates were then read on a PerkinElmer EnVision Multilabel Reader, using AlphaScreen® technology, and data were analyzed using a 4-parameter logistic model to calculate IC50 values.

[3] = Homo sapiens, MIA PaCa-2, MIA PaCa-2 cells

SMILES | IC50 [1, 3] | IC50 [2] | IC50 ([1]; MIA PaCa-2 cells)
C=CC(=O)N1C[C@H](C)N(C2=NS(=O)(=O)N(c3c(C)ccnc3C(C)C)c3nc(-c4ccccc4C)c(Cl)cc32)C[C@H]1C (single isomer, unassigned) [Example 1-12-1] | 290 nM | 220 nM | –
C=CC(=O)N1C[C@H](C)N(C2=NS(=O)(=O)N(c3ccc(CN(C)C)cc3C3CC3)c3nc(-c4ccccc4F)c(Cl)cc32)C[C@H]1C [Example 6, 1-((2R,5S)-4-(6-Chloro-1-(2-cyclopropyl-4-((dimethylamino)methyl)phenyl)-7-(2-fluorophenyl)-2,2-dioxido-1H-pyrido[2,3-c][1,2,6]thiadiazin-4-yl)-2,5-dimethyl-1-piperazinyl)-2-propen-1-one] | 150 nM | 150 nM | –
C=CC(=O)N1C[C@H](C)N(C2=NS(=O)(=O)N(c3c(C)cnn3C(C)C)c3nc(-c4ccccc4F)c(Cl)cc32)C[C@H]1C (single isomer, unassigned) [Example 1-11-2] | – | 150 nM | 330 nM
C=CC(=O)N1C[C@H](C)N(C2=NS(=O)(=O)N(c3c(C)cc(CN(C)C)cc3C(C)C)c3nc(-c4c(N)cccc4F)c(Cl)cc32)C[C@H]1C [Example 8, 1-((2R,5S)-4-(7-(2Amino-6-fluorophenyl)-6-chloro-1-(4-((dimethylamino)methyl)-2-methyl-6-(2-propanyl)phenyl)-2,2-dioxido-1H-pyrido[2,3-c][1,2,6]thiadiazin-4-yl)-2,5-dimethyl-1-piperazinyl)-2-propen-1-one] | – | 190 nM | 270 nM
C=CC(=O)N1CCN(C2=NS(=O)(=O)N(c3c(C)ccnc3C(C)C)c3nc(-c4ccccc4F)c(Cl)cc32)[C@@H](C)C1 (single isomer, unassigned) [Example 2-2-1] | – | 240 nM | 270 nM
C=CC(=O)N1CCN(C2=NS(=O)(=O)N(c3c(C)ccnc3C(C)C)c3nc(-c4ccccc4F)c(Cl)cc32)[C@@H](C)C1 (single isomer, unassigned) [Example 2-2-2] | – | 2980 nM | 1520 nM
C=CC(=O)N1C[C@H](C)N(C2=NS(=O)(=O)N(c3c(N)ncnc3C(C)C)c3nc(-c4ccccc4F)c(Cl)cc32)C[C@H]1C [Example 9] | – | 250 nM | 150 nM

Other lines, results leading:

IC50 [1, 3] | IC50 [2] | IC50 ([1]; MIA PaCa-2 cells) | SMILES
160 nM | 170 nM | – | C=CC(=O)N1C[C@H](C)N(C2=NS(=O)(=O)N(c3ccccc3C(C)C)c3nc(-c4c(O)cccc4F)c(Cl)cc32)C[C@H]1C [Example 1-4, 1-((2R,5S)-4-(6-chloro-7-(2-fluoro-6-hydroxyphenyl)-2,2-dioxido-1-(2-(2-propanyl)phenyl)-1H-pyrido[2,3-c][1,2,6]thiadiazin-4-yl)-2,5-dimethyl-1-piperazinyl)-2-propen-1-one]
180 nM | 190 nM | – | C=CC(=O)N1CCN(C2=NS(=O)(=O)N(c3ccccc3C(C)C)c3nc(-c4ccccc4S(C)(=O)=O)c(Cl)cc32)[C@@H](C)C1 [Example 1-9, 1-((3S)-4-(6-chloro-7-(2-(methylsulfonyl)phenyl)-2,2-dioxido-1-(2-(2-propanyl)phenyl)-1H-pyrido[2,3-c][1,2,6]thiadiazin-4-yl)-3-methyl-1-piperazinyl)-2-propen-1-one]
110 nM | 100 nM | – | C=CC(=O)N1C[C@H](C)N(C2=NS(=O)(=O)N(c3scnc3C(C)C)c3nc(-c4c(O)cccc4F)c(Cl)cc32)C[C@H]1C [Example 1-5, 1-((2R,5S)-4-(6-chloro-7-(2-fluoro-6-hydroxyphenyl)-2,2-dioxido-1-(4-(2-propanyl)-1,3-thiazol-5-yl)-1H-pyrido[2,3-c][1,2,6]thiadiazin-4-yl)-2,5-dimethyl-1-piperazinyl)-2-propen-1-one]
– | 80 nM | 80 nM | C=CC(=O)N1C[C@H](C)N(C2=NS(=O)(=O)N(c3c(C)cc(CN(C)C)cc3C(C)C)c3nc(-c4c(N)cccc4F)c(Cl)cc32)C[C@H]1C [Example 8-1, 1-((2R,5S)-4-(7-(2-amino-6-fluorophenyl)-6-chloro-1-(4-((dimethylamino)methyl)-2-methyl-6-(2-propanyl)phenyl)-2,2-dioxido-1H-pyrido[2,3-c][1,2,6]thiadiazin-4-yl)-2,5-dimethyl-1-piperazinyl)-2-propen-1-one]
– | – | 340 nM | C=CC(=O)N1C[C@H](C)N(C2=NS(=O)(=O)N(c3ccccc3C(C)(C)C)c3nc(-c4ccccc4F)c(Cl)cc32)C[C@H]1C [Example 1-1]
270 nM | 150 nM | – | C=CC(=O)N1CCN(C2=NS(=O)(=O)N(c3ccccc3C(C)C)c3nc(-c4c(O)cccc4F)c(Cl)cc32)[C@@H](C)C1 [Example 1-2, 1-((3S)-4-(6-chloro-7-(2-fluoro-6-hydroxyphenyl)-2,2-dioxido-1-(2-(2-propanyl)phenyl)-1H-pyrido[2,3-c][1,2,6]thiadiazin-4-yl)-3-methyl-1-piperazinyl)-2-propen-1-one]
200 nM | 200 nM | – | C=CC(=O)N1C[C@H](C)N(C2=NS(=O)(=O)N(c3c(C)cnn3C(C)C)c3nc(-c4ccccc4F)c(Cl)cc32)C[C@H]1C [Example 1-11, 1-((2R,5S)-4-(6-chloro-7-(2-fluorophenyl)-1-(4-methyl-1-(2-propanyl)-1H-pyrazol-5-yl)-2,2-dioxido-1H-pyrido[2,3-c][1,2,6]thiadiazin-4-yl)-2,5-dimethyl-1-piperazinyl)-2-propen-1-one]
70 nM | 60 nM | – | C=CC(=O)N1CCN(C2=NS(=O)(=O)N(c3ccccc3C(C)C)c3nc(-c4c(N)cccc4F)c(Cl)cc32)[C@@H](C)C1 [Example 1-3, 1-((3S)-4-(7-(2-amino-6-fluorophenyl)-6-chloro-2,2-dioxido-1-(2-(2-propanyl)phenyl)-1H-pyrido[2,3-c][1,2,6]thiadiazin-4-yl)-3-methyl-1-piperazinyl)-2-propen-1-one]
310 nM | 290 nM | – | C=CC(=O)N1CCN(C2=NS(=O)(=O)N(c3c(C(C)C)ncnc3C(C)C)c3nc(-c4ccccc4F)c(Cl)cc32)[C@@H](C)C1 [Example 2-4, (S)-1-(4-(6-chloro-1-(4,6-diisopropylpyrimidin-5-yl)-7-(2-fluorophenyl)-2,2-dioxido-1H-pyrido[2,3-c][1,2,6]thiadiazin-4-yl)-3-methylpiperazin-1-yl)prop-2-en-1-one]
90 nM | 150 nM | – | C=CC(=O)N1CCN(C2=NS(=O)(=O)N(c3ccc(CN(C)C)cc3C(C)C)c3nc(-c4ccccc4F)c(Cl)cc32)[C@@H](C)C1 [Example 3-1, 1-((3S)-4-(6-Chloro-1-(4-((dimethylamino)methyl)-2-(2-propanyl)phenyl)-7-(2-fluorophenyl)-2,2-dioxido-1H-pyrido[2,3-c][1,2,6]thiadiazin-4-yl)-3-methyl-1-piperazinyl)-2-propen-1-one]
240 nM | 180 nM | – | C=CC(=O)N1C[C@H](C)N(C2=NS(=O)(=O)N(c3ccccc3C(C)C)c3nc(-c4ccccc4F)c(Cl)cc32)C[C@H]1C [Example 2-3, 1-((2R,5S)-4-(6-chloro-7-(2-fluorophenyl)-1-(2-isopropylphenyl)-2,2-dioxido-1H-pyrido[2,3-c][1,2,6]thiadiazin-4-yl)-2,5-dimethylpiperazin-1-yl)prop-2-en-1-one]
– | 800 nM | – | C=CC(=O)N1CCN(C2=NS(=O)(=O)N(c3ccccc3CC(C)C)c3nc(-c4ccccc4F)c(Cl)cc32)[C@@H](C)C1 [Example 3-2, 1-((3S)-4-(6-chloro-7-(2-fluorophenyl)-1-(2-(2-methylpropyl)phenyl)-2,2-dioxido-1H-pyrido[2,3-c][1,2,6]thiadiazin-4-yl)-3-methyl-1-piperazinyl)-2-propen-1-one]
